Results from US9096536B2, “Asymmetrically substituted anthrapyridazone derivatives as cytostatics” (BS-154 S.P. ZO.O., priority 2011, dated 2015).
Values after ≈ are worked out from the molar mass of the structure shown. Read-outs that look alike come from different tables or passages of the source.

How the values were obtained:
HT29/MIT = assay: Cytostatic activity in vitro, mitoxantrone-induced resistant subline HT29/MIT; type: cell-based, human; details: for IC50: 72 h continuous exposure; for RI resistance index HT29/MIT: IC50(resistant cells)/IC50(sensitive cells), HT29/MIT vs HT29
From the text: (§1) Table 7 presents activity in vitro of selected anthrapyridazone derivatives according to the invention towards sensitive and resistant (MDR-1 type) cell line of human colon adenocarcinoma with resistance induced by mitoxantrone.

[1] = system: human colon adenocarcinoma HT29; assay: Cytostatic activity in vitro, colon adenocarcinoma HT29; type: cell-based; details: 72 h continuous exposure
From the text: as §1

MCF7/DX = assay: Cytostatic activity in vitro, resistant breast cancer subline MCF7/DX (MDR-1); type: cell-based, human; details: for IC50: 72 h continuous exposure; for RI resistance index MCF7/DX: IC50(resistant cells)/IC50(sensitive cells), MCF7/DX vs MCF7
From the text: (§2) It should be mentioned that resistance index is above one order of magnitude better in comparison with doxorubicin and mitoxantrone.

MES-SA/DX5 = assay: Cytostatic activity, panel: MES-SA/DX5 resistant to doxorubicin; type: cell-based; details: for RI MES-SA MES-SA/DX5: IC50(resistant cells)/IC50(sensitive cells)
From the text: (§3) Tables 8A and 8B present cytostatic activity in vitro of selected anthrapyridazone derivatives according to the invention against panel of sensitive and resistant cell lines, in comparison with doxorubicin, cisplatine and mitoxantrone.

[2] = system: human breast cancer cell line MCF7; assay: Cytostatic activity in vitro, breast cancer MCF7; type: cell-based; details: 72 h continuous exposure
From the text: as §2

[3] = system: promyelolytic leukemia HL-60; assay: Cytostatic activity, panel: promyelolytic leukemia HL-60; type: cell-based; details: 72 h continuous exposure
From the text: as §3

CT-DNA = assay: Interaction with isolated CT-DNA, fluorescence competition with ethidium bromide; type: binding; details: for IC50: 50% decrease in fluorescence intensity of DNA-bromide ethydine complex; for Kapp relative constant of DNA-compound bonding: Kapp = (1.26/C50) × KEtBr, KEtBr = 10^7M
From the text: It could be supposed that this property explains cytostatic activity of compounds. In Table 9 there are presented quantitative data on the affinity to DNA of tested compounds using the fluorescence method and competitive affinity to DNA of bromine ethydine and tested compounds.

LoVo/DX = assay: Cytostatic activity, panel: LoVo/DX resistant to doxorubicin; type: cell-based; details: for RI LoVo LoVo/DX: IC50(resistant cells)/IC50(sensitive cells)
From the text: as §3

[4] = system: human prostate cancer cell line DU145; assay: Cytostatic activity in vitro, prostate cancer DU145; type: cell-based; details: 72 h continuous exposure
From the text: (§4) Table 5 presents activity in vitro of anthrapiridazone derivatives towards three cell lines of prostate cancer, naturally multidrug resistant, in comparison with references doxorubicin, mitoxantrone and taxol.

HL60/VINC [5] = assay: Cytostatic activity in vitro, vincristine-induced resistant subline (MDR-1); type: cell-based, human; details: for IC50: 72 h continuous exposure; for RI resistance index HL60/VINC: IC50(resistant cells)/IC50(sensitive cells), HL60/VINC vs HL60, 72 h
From the text: (§5) Tables 3 and 4 show cytostatic activity in vitro of 2,6-disubstituted and 2- or 6-monosubstituted (Tab.3), and of 2,5-disubstituted-(Tab.-4) tetracyclic anthrapyridazone derivatives using leukemia cell line HL-60 and the resistant cell sublines with resistance induced by vincristine (MDR-1) or doxorubicin (MRP). Activity of compounds is differentiated depending on their structure, but in all cases resistance indexes are more advantageous in comparison with reference compounds: doxorubicin and mitoxantrone.

uterus cancer MES-SA = assay: Cytostatic activity, panel: uterus cancer MES-SA; type: cell-based; details: 72 h continuous exposure
From the text: as §3

[6] = system: human promyelocytic leukemia cell line HL-60; assay: Cytostatic activity in vitro, HL-60 sensitive line; type: cell-based; details: 50% inhibition of cell growth after 72 h continuous exposure, read-out: HL60 IC50
From the text: as §5

[7] = system: human prostate cancer cell line PC3; assay: Cytostatic activity in vitro, prostate cancer PC3; type: cell-based; details: 72 h continuous exposure
From the text: as §4

colon cancer LoVo = assay: Cytostatic activity, panel: colon cancer LoVo; type: cell-based; details: 72 h continuous exposure
From the text: as §3

HL60/DX [8] = assay: Substrate properties: activity against HL60/DX in the presence of BSO (MRP pump inhibitor); type: cell-based, human; details: FIG. 3
From the text: Activity in vitro against human promyelolytic leukemia HL60/DX in the presence of D-L-buthionine-(S,R)-sulphoximine (BSO), MRP pump inhibitor.

CEM/C2 = assay: Cytostatic activity, panel: CEM/C2 resistant to camptotecine; type: cell-based; details: for RI CCRF-CEM CEM/C2: IC50(resistant cells)/IC50(sensitive cells)
From the text: as §3

HL60/MX2 = assay: Cytostatic activity, panel: HL60/MX2 resistant to mitoxantrone; type: cell-based; details: for RI HL60 HL60/MX2: IC50(resistant cells)/IC50(sensitive cells)
From the text: as §3

HL60/DX [9] = assay: Cytostatic activity in vitro, doxorubicin-induced resistant subline (MRP); type: cell-based, human; details: for IC50: 72 h continuous exposure; for RI resistance index HL60/DX: IC50(resistant cells)/IC50(sensitive cells), HL60/DX vs HL60, 72 h
From the text: as §5

[10] = system: human prostate cancer cell line LNCaP; assay: Cytostatic activity in vitro, prostate cancer LNCaP; type: cell-based; details: 72 h continuous exposure
From the text: as §4

[11] = system: lymphoblastic leukemia CCRF-CEM; assay: Cytostatic activity, panel: lymphoblastic leukemia CCRF-CEM; type: cell-based; details: 72 h continuous exposure
From the text: as §3

HL60/VINC [12] = assay: Substrate properties: activity against HL60/VINC in the presence of cyclosporine A (MDR-1 pump inhibitor); type: cell-based, human; details: FIG. 2
From the text: FIG. 2 shoes experimentally determined substrate properties of selected antgraoyridazone derivatives vs. Doxorubicin and Mitroxantrone. Activity in vitro against human promyelacytic leykemia cell line HL60/VINC in the presence of cyclosporine A (MDR-1 pump inhibitor).

Question: With `CNCCNc1ccc2c(=O)n(CCN(C)C)nc3c2c1C(=O)c1ccccc1-3` [BS-154, 2-[2-(Dimethyloamino)ethyl]-6-{[2-(methylamino)ethyl]amino}-2,7-dihydro-3H -dibenzo[de,h]cynnoline-3,7-dione] as the molecule, how does the IC50 (HT29/MIT) read?
Answer: 11.2 ± 2.2 nM

Question: And the “RI resistance index HT29/MIT” value (HT29/MIT)?
Answer: 2.1

Question: What about the IC50 [1] of the same molecule?
Answer: 5.2 ± 1.3 nM

Question: And the IC50 (MCF7/DX)?
Answer: 8.7 ± 1.2 nM

Question: And the “RI resistance index MCF7/DX” value (MCF7/DX)?
Answer: 1.0

Question: And the “IC50 MES-SA/DX5” value (MES-SA/DX5; 72 h continuous exposure)?
Answer: 0.03833 ± 0.01136 µg/mL (≈ 0.0979 µM)

Question: What about the “RI MES-SA MES-SA/DX5” value (MES-SA/DX5) of the same molecule?
Answer: 2.9

Question: What about the IC50 [2] of the same molecule?
Answer: 8.8 ± 0.6 nM

Question: What about the “IC50 HL60” value [3] of the same molecule?
Answer: 0.00111 ± 0.00002 µg/mL (≈ 0.00284 µM)

Question: And the IC50 (CT-DNA)?
Answer: 290 ± 10 nM

Question: What about the Kapp relative constant of DNA-compound bonding (CT-DNA) of the same molecule?
Answer: 4.28e+07 M⁻¹

Question: What about the “IC50 LoVo/DX” value (LoVo/DX; 72 h continuous exposure) of the same molecule?
Answer: 0.06842 ± 0.01273 µg/mL (≈ 0.175 µM)

Question: What about the “RI LoVo LoVo/DX” value (LoVo/DX) of the same molecule?
Answer: 44.7

Question: What about the IC50 [4] of the same molecule?
Answer: 3 ± 0.7 nM

Question: And the IC50 (HL60/VINC [5])?
Answer: 8.1 ± 1 nM

Question: What about the “RI resistance index HL60/VINC” value (HL60/VINC [5]) of the same molecule?
Answer: 9.0

Question: And the “IC50 MES-SA” value (uterus cancer MES-SA)?
Answer: 0.01333 ± 0.00238 µg/mL (≈ 0.0341 µM)

Question: What about the IC50 [6] of the same molecule?
Answer: 0.9 ± 0.1 nM

Question: And the IC50 [7]?
Answer: 14 ± 3.3 nM

Question: And the “IC50 LoVo” value (colon cancer LoVo)?
Answer: 0.00153 ± 0.00102 µg/mL (≈ 0.00391 µM)

Question: What about the “Effect of MRP protein inhibitor (BSO) on cytostatic activity” value (HL60/DX [8]) of the same molecule?
Answer: only partially

Question: And the “IC50 CEM/C2” value (CEM/C2; 72 h continuous exposure)?
Answer: 0.00124 ± 0.00137 µg/mL (≈ 0.00317 µM)

Question: What about the “RI CCRF-CEM CEM/C2” value (CEM/C2) of the same molecule?
Answer: 0.3

Question: What about the “IC50 HL60/MX2” value (HL60/MX2; 72 h continuous exposure) of the same molecule?
Answer: 0.00545 ± 0.00304 µg/mL (≈ 0.0139 µM)

Question: What about the “RI HL60 HL60/MX2” value (HL60/MX2) of the same molecule?
Answer: 4.9

Question: And the IC50 (HL60/DX [9])?
Answer: 375 ± 41 nM

Question: What about the “RI resistance index HL60/DX” value (HL60/DX [9]) of the same molecule?
Answer: 416.7

Question: What about the IC50 [10] of the same molecule?
Answer: 2.6 ± 0.3 nM

Question: What about the “IC50 CCRF-CEM” value [11] of the same molecule?
Answer: 0.00373 ± 0.00193 µg/mL (≈ 0.00953 µM)

Question: What about the “Effect of blocking MDR-1 pump with cyclosporine A (CSA) on cytostatic activity” value (HL60/VINC [12]) of the same molecule?
Answer: does not essentially affect the cytostatic activity

Question: Which IC50 (HT29/MIT; Homo sapiens, HT-29) does the source give for `O=C1c2c(O)ccc(O)c2C(=O)c2c(NCCNCCO)ccc(NCCNCCO)c21` [Mitoxantrone, 1,4-dihydroxy-5,8-bis[2-(2-hydroxyethylamino)ethylamino]-9,10-anthracenodione, reference compound] here?
Answer: 854 ± 158 nM

Question: And the “RI resistance index HT29/MIT” value (HT29/MIT)?
Answer: 74.9

Question: What about the IC50 ([1]; Homo sapiens, HT-29) of the same molecule?
Answer: 11.4 ± 3.9 nM

Question: And the IC50 (MCF7/DX; Homo sapiens, MCF7/DX)?
Answer: 471 ± 160 nM

Question: And the “RI resistance index MCF7/DX” value (MCF7/DX)?
Answer: 63.6

Question: And the IC50 (MES-SA/DX5; Homo sapiens, MES-SA/Dx5, 72 h continuous exposure)?
Answer: 0.66 ± 0.059 µg/mL (≈ 1.48 µM)

Question: And the “RI MES-SA MES-SA/DX5” value (MES-SA/DX5)?
Answer: 2.9

Question: And the IC50 ([2]; Homo sapiens, MCF7)?
Answer: 7.4 ± 1.9 nM

Question: What about the IC50 ([3]; Homo sapiens, HL-60, read-out: IC50 HL60) of the same molecule?
Answer: 0.0083 µg/mL (≈ 0.0187 µM)

Question: What about the IC50 (CT-DNA) of the same molecule?
Answer: 48 ± 4 nM

Question: What about the Kapp relative constant of DNA-compound bonding (CT-DNA) of the same molecule?
Answer: 2.61e+08 M⁻¹

Question: What about the “RI LoVo LoVo/DX” value (LoVo/DX) of the same molecule?
Answer: 9.5

Question: And the IC50 (LoVo/DX; LoVo/DX, 72 h continuous exposure)?
Answer: 2.09 ± 0.519 µg/mL (≈ 4.7 µM)

Question: And the IC50 ([4]; Homo sapiens, DU-145)?
Answer: 8.5 ± 1.5 nM

Question: What about the IC50 (HL60/VINC [5]; Homo sapiens, HL60/vinc) of the same molecule?
Answer: 65.7 ± 6.7 nM

Question: What about the “RI resistance index HL60/VINC” value (HL60/VINC [5]) of the same molecule?
Answer: 31.3

Question: What about the IC50 (uterus cancer MES-SA; Homo sapiens, MES-SA) of the same molecule?
Answer: 0.23 ± 0.121 µg/mL (≈ 0.517 µM)

Question: And the IC50 ([6]; Homo sapiens, HL-60)?
Answer: 2.1 ± 0.2 nM

Question: And the IC50 ([7]; Homo sapiens)?
Answer: 18.6 ± 3.8 nM

Question: What about the IC50 (colon cancer LoVo; Homo sapiens, LoVo) of the same molecule?
Answer: 0.22 ± 0.067 µg/mL (≈ 0.495 µM)

Question: And the “Effect of MRP protein inhibitor (BSO) on cytostatic activity” value (HL60/DX [8])?
Answer: essentially influences the cytostatic activity

Question: And the IC50 (CEM/C2; Homo sapiens, CEM/C2, 72 h continuous exposure)?
Answer: 0.0028 µg/mL (≈ 0.0063 µM)

Question: And the “RI CCRF-CEM CEM/C2” value (CEM/C2)?
Answer: 1.1

Question: And the IC50 (HL60/MX2; Homo sapiens, HL60/MX2, 72 h continuous exposure)?
Answer: 0.356 µg/mL (≈ 0.801 µM)

Question: What about the “RI HL60 HL60/MX2” value (HL60/MX2) of the same molecule?
Answer: 42.9

Question: What about the IC50 (HL60/DX [9]; Homo sapiens, HL-60) of the same molecule?
Answer: 3430 ± 661 nM

Question: What about the “RI resistance index HL60/DX” value (HL60/DX [9]) of the same molecule?
Answer: 1633.8

Question: And the IC50 ([10]; Homo sapiens, LNCaP)?
Answer: 7.4 ± 1.1 nM

Question: What about the IC50 ([11]; Homo sapiens, CCRF-CEM) of the same molecule?
Answer: 0.0025 µg/mL (≈ 0.00562 µM)

Question: And the “Effect of blocking MDR-1 pump with cyclosporine A (CSA) on cytostatic activity” value (HL60/VINC [12])?
Answer: has positive influence on maintaining the cytostatic activity
